The values below come from patent US20260125360A1, “HERBICIDAL IMIDAZOLE COMPOUNDS” (SYNGENTA CROP PROTECTION AG, priority 2022, published 2026).

The structures appear in SMILES notation.

Assay type in all cases: in vivo
Conditions in all cases: 250 g/ha, evaluated after 13 days

The subject of assay [1] is Amaranthus palmeri (AMAPA). Description: Post-emergence herbicide glasshouse test. On the procedure:
(§1) Seeds of a variety of test species are sown in standard soil in pots Amaranthus palmeri (AMAPA), Amaranthus retoflexus (AMARE), Echinochloa crus-galli (ECHCG), Ipomoea hederacea (IPOHE)). After cultivation for one day (pre-emergence) or after 8 days cultivation (post-emergence) under controlled conditions in a glasshouse (at 24/16° C., day/night; 14 hours light; 65% humidity), the plants are sprayed with an aqueous spray solution derived from the formulation of the technical active ingredient in acetone/water (50:50) solution containing 0.5% Tween 20 (polyoxyethelyene sorbitan monolaurate, CAS RN 9005-64-5). Compounds are applied at 250 g/ha unless otherwise stated. The test plants are then grown in a glasshouse under controlled conditions in a glasshouse (at 24/16° C., day/night; 14 hours light; 65% humidity) and watered twice daily. After 13 days for pre and post-emergence, the test is evaluated for the percentage damage caused to the plant. The biological activities are shown in the following table on a five-point scale (5=81-100%; 4=61-80%; 3=41-60%; 2=21-40%; 1=0-20%).

In assay [2] the test system is Ipomoea hederacea (IPOHE). Description: Post-emergence herbicide glasshouse test. On the procedure:
as §1

The test system of assay [3] is Amaranthus retoflexus (AMARE). In words: Post-emergence herbicide glasshouse test. On the procedure:
as §1

In assay [4] the test system is Echinochloa crus-galli (ECHCG). Description: Post-emergence herbicide glasshouse test. On the procedure:
as §1

Assay [5] deals with Amaranthus palmeri (AMAPA). In words: Pre-emergence herbicide glasshouse test. On the procedure: as §1
Assay [6] has as its system Ipomoea hederacea (IPOHE). Description: Pre-emergence herbicide glasshouse test. On the procedure: as §1
The subject of assay [7] is Amaranthus retoflexus (AMARE). In words: Pre-emergence herbicide glasshouse test. On the procedure:
as §1

The subject of assay [8] is Echinochloa crus-galli (ECHCG). Description: Pre-emergence herbicide glasshouse test. On the procedure: as §1

Take `Cn1cc(Cn2cc(C(F)(F)F)nc2-c2ccc(C(F)(F)F)cc2)c(C(F)(F)F)n1` [Compound 1.014]: the “percentage damage caused to the plant, AMAPA (five-point scale)” value in assay [1] and in assay [5] was 1 (1=0-20%) in each case. In addition, the “percentage damage caused to the plant, IPOHE (five-point scale)” value in assay [2] and in assay [6] was 1 (1=0-20%) in each case. Also, the “percentage damage caused to the plant, AMARE (five-point scale)” value in assay [3] and in assay [7] was 1 (1=0-20%) throughout. Further, the “percentage damage caused to the plant, ECHCG (five-point scale)” value in assay [4] and in assay [8] was 1 (1=0-20%) each time.
In the case of `Cn1cnc(Cn2cc(C(F)F)nc2-c2cnc(Cl)c(F)c2)n1` [Compound 1.015, 2-chloro-5-[4-(difluoromethyl)-1-[(1-methyl-1,2,4-triazol-3-yl)methyl]imidazol-2-yl]-3-fluoro-pyridine], the “percentage damage caused to the plant, AMAPA (five-point scale)” value in assay [1] and in assay [5] was 5 (5=81-100%) in each case. Besides, the “percentage damage caused to the plant, IPOHE (five-point scale)” value in assay [2] and in assay [6] was 5 (5=81-100%) throughout. Moreover, the “percentage damage caused to the plant, AMARE (five-point scale)” value in assay [3] and in assay [7] was 5 (5=81-100%) each time. Besides, the “percentage damage caused to the plant, ECHCG (five-point scale)” value is on record as 3 (3=41-60%) in assay [4] and 4 (4=61-80%) in assay [8].
Take `Cc1nnc(Cn2cc(C(F)F)nc2-c2cnc(Cl)c(F)c2)s1` [Compound 1.016]: the “percentage damage caused to the plant, AMAPA (five-point scale)” value is 1 (1=0-20%) in assay [1] and 4 (4=61-80%) in assay [5]. Moreover, the “percentage damage caused to the plant, IPOHE (five-point scale)” value in assay [2] and in assay [6] was 1 (1=0-20%) in each case. Also, the results for the “percentage damage caused to the plant, AMARE (five-point scale)” value in assay [3] and in assay [7] were 1 (1=0-20%) and 5 (5=81-100%), respectively. Also, the “percentage damage caused to the plant, ECHCG (five-point scale)” value in assay [4] and in assay [8] was 1 (1=0-20%) in each case.
Turning to `Cc1nnc(Cn2cc(C(F)(F)F)nc2-c2cnc(Cl)c(F)c2)s1` [Compound 1.017], the “percentage damage caused to the plant, AMAPA (five-point scale)” value in assay [1] and in assay [5] was 5 (5=81-100%) each time. Further, the “percentage damage caused to the plant, IPOHE (five-point scale)” value in assay [2] was 1 (1=0-20%); in assay [6], 5 (5=81-100%). The “percentage damage caused to the plant, AMARE (five-point scale)” value in assay [3] and in assay [7] was 5 (5=81-100%) in each case. In addition, the “percentage damage caused to the plant, ECHCG (five-point scale)” value in assay [4] is 2 (2=21-40%); in assay [8], 4 (4=61-80%).
For the compound `Cn1cnc(Cn2cc(C(F)(F)F)nc2-c2cnc(Cl)c(F)c2)n1` [Compound 1.018], the “percentage damage caused to the plant, AMAPA (five-point scale)” value in assay [1] and in assay [5] was 5 (5=81-100%) each time. The entries for the “percentage damage caused to the plant, IPOHE (five-point scale)” value in assay [2] and in assay [6] were 4 (4=61-80%) and 5 (5=81-100%), respectively. Further, the “percentage damage caused to the plant, AMARE (five-point scale)” value in assay [3] and in assay [7] was 5 (5=81-100%) in each case. Moreover, the “percentage damage caused to the plant, ECHCG (five-point scale)” value in assay [4] and in assay [8] was 5 (5=81-100%) in each case.
With `Cn1cnc(Cn2cc(C(F)(F)F)nc2-c2ccc(F)c(F)c2)n1` [Compound 1.020], the “percentage damage caused to the plant, AMAPA (five-point scale)” value in assay [1] and in assay [5] was 5 (5=81-100%) in each case. Moreover, the “percentage damage caused to the plant, IPOHE (five-point scale)” value in assay [2] was 4 (4=61-80%); in assay [6], 5 (5=81-100%). The “percentage damage caused to the plant, AMARE (five-point scale)” value in assay [3] and in assay [7] was 5 (5=81-100%) throughout. For the same compound, the “percentage damage caused to the plant, ECHCG (five-point scale)” value in assay [4] and in assay [8] was 5 (5=81-100%) in each case.
As to `Cc1nnc(Cn2cc(C(F)(F)F)nc2-c2ccc(F)c(F)c2)s1` [Compound 1.021], the “percentage damage caused to the plant, AMAPA (five-point scale)” value in assay [1] and in assay [5] was 5 (5=81-100%) in each case. Further, the “percentage damage caused to the plant, IPOHE (five-point scale)” value in assay [2] was 4 (4=61-80%); in assay [6], 5 (5=81-100%). Besides, the “percentage damage caused to the plant, AMARE (five-point scale)” value in assay [3] and in assay [7] was 5 (5=81-100%) throughout. Moreover, the “percentage damage caused to the plant, ECHCG (five-point scale)” value in assay [4] is 4 (4=61-80%); in assay [8] it was 5 (5=81-100%).
Regarding `Cc1cc(Cn2cc(C(F)F)nc2-c2cnc(Cl)c(F)c2)no1` [Compound 1.024], the “percentage damage caused to the plant, AMAPA (five-point scale)” value in assay [1] and in assay [5] was 5 (5=81-100%) throughout. Besides, the “percentage damage caused to the plant, IPOHE (five-point scale)” value is 4 (4=61-80%) in assay [2] and 5 (5=81-100%) in assay [6]. Also, the “percentage damage caused to the plant, AMARE (five-point scale)” value in assay [3] and in assay [7] was 5 (5=81-100%) throughout. The “percentage damage caused to the plant, ECHCG (five-point scale)” value is given as 2 (2=21-40%) in assay [4] and 4 (4=61-80%) in assay [8].
In the case of `Cc1cc(Cn2cc(C(F)(F)F)nc2-c2cnc(Cl)c(F)c2)no1` [Compound 1.025], the “percentage damage caused to the plant, AMAPA (five-point scale)” value in assay [1] is listed as 4 (4=61-80%); in assay [5], 5 (5=81-100%). Also, the results for the “percentage damage caused to the plant, IPOHE (five-point scale)” value in assay [2] and in assay [6] were 2 (2=21-40%) and 4 (4=61-80%), respectively. The “percentage damage caused to the plant, AMARE (five-point scale)” value in assay [3] and in assay [7] was 5 (5=81-100%) throughout. The “percentage damage caused to the plant, ECHCG (five-point scale)” value in assay [4] and in assay [8] was 4 (4=61-80%) each time.
Take `Cn1ccc(Cn2cc(C(F)(F)F)nc2-c2cnc(Cl)c(F)c2)n1` [Compound 1.026]: the entries for the “percentage damage caused to the plant, AMAPA (five-point scale)” value in assay [1] and in assay [5] were 4 (4=61-80%) and 5 (5=81-100%), respectively. For the same compound, the “percentage damage caused to the plant, IPOHE (five-point scale)” value is 4 (4=61-80%) in assay [2] and 5 (5=81-100%) in assay [6]. For the same compound, the “percentage damage caused to the plant, AMARE (five-point scale)” value in assay [3] is recorded as 4 (4=61-80%); in assay [7], 5 (5=81-100%). The entries for the “percentage damage caused to the plant, ECHCG (five-point scale)” value in assay [4] and in assay [8] were 3 (3=41-60%) and 4 (4=61-80%), respectively.
